Results: US20250325534A1, “MICROBIOCIDAL TETRAHYDROISOQUINOLINE DERIVATIVES” (SYNGENTA CROP PROTECTION AG, priority 2021, published 2025)

Experiments:
Pyrenophora teres = Pyrenophora teres / barley / leaf disc preventative (net blotch); assay type: in vivo; details: foliar, inoculated 2 days after application
Description: Example B16: Pyrenophora teres/Barley/Leaf Disc Preventative (Net Blotch) Barley leaf segments cv. Hasso are placed on agar in a multiwell plate (24-well format) and sprayed with the formulated test compound diluted in water. The leaf segments are inoculated with a spore suspension of the fungus 2 days after application. The inoculated leaf segments are incubated at 20° C. and 65% relative humidity under a light regime of 12 h light/12 h darkness in a climate cabinet and the activity of a compound is assessed as disease control compared to untreated when an appropriate level of disease damage appears in untreated check leaf segments (5-7 days after application).

Sclerotinia sclerotiorum = Sclerotinia sclerotiorum / liquid culture (cottony rot); assay type: cell-based; details: 72 h, photometrically 3-4 days after application, read-out: control of Sclerotinia sclerotiorum
Description: Example B18: Sclerotinia sclerotiorum/Liquid Culture (Cottony Rot) Mycelia fragments of a newly grown liquid culture of the fungus are directly mixed into a nutrient broth (potato dextrose broth). After placing a DMSO solution of test compound into a microtiter plate (96-well format) the nutrient broth containing the fungal material is added. The test plates are incubated at 24° C. and the inhibition of growth is determined photometrically 3-4 days after application.

[1] = tested on: Puccinia recondita f. sp. tritici; test: Puccinia recondita f. sp. tritici / wheat / leaf disc preventative (brown rust); assay type: in vivo; details: foliar, inoculated 1 day after application
Description: Example B14: Puccinia recondita f. Sp. Tritici/Wheat/Leaf Disc Preventative (Brown Rust) Wheat leaf segments cv. Kanzler are placed on agar in multiwell plates (24-well format) and sprayed with the formulated test compound diluted in water. The leaf disks are inoculated with a spore suspension of the fungus 1 day after application. The inoculated leaf segments are incubated at 19° C. and 75% relative humidity under a light regime of 12 h light/12 h darkness in a climate cabinet and the activity of a compound is assessed as percent disease control compared to untreated when an appropriate level of disease damage appears in untreated check leaf segments (7-9 days after application).

Monographella nivalis = Monographella nivalis (Microdochium nivale) / liquid culture (foot rot cereals); assay type: cell-based; details: 96 h, photometrically 4-5 days after application, read-out: control of Monographella nivalis
How it was run: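 Microdochium nivale conidia in potato dextrose broth were added to test compound in DMSO and incubated at 24° C. Growth inhibition was measured photometrically 4-5 days after application.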

Mycosphaerella arachidis = Mycosphaerella arachidis (Cercospora arachidicola) / liquid culture (early leaf spot); assay type: cell-based; details: 96 h, photometrically 4-5 days after application, read-out: control of Mycosphaerella arachidis
How it was run: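 Cryostored M. arachidis conidia in potato dextrose broth were added to compound applied as DMSO solution. Incubated at 24 °C; growth inhibition measured photometrically 4-5 days after application.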

[2] = tested on: Mycosphaerella graminicola; test: Mycosphaerella graminicola (Septoria tritici) / liquid culture (Septoria blotch); assay type: cell-based; details: Zymoseptoria tritici, 96 h, photometrically 4-5 days after application, read-out: control of Mycosphaerella graminicola
How it was run: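 Conidia from cryogenic storage mixed into potato dextrose broth, added to test compound in DMSO. Plates incubated at 24° C; growth inhibition read photometrically 4-5 days after application.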

Alternaria solani = Alternaria solani / tomato / leaf disc (early blight); assay type: in vivo; details: foliar, inoculated 2 days after application, vs untreated control
Botryotinia fuckeliana = Botryotinia fuckeliana (Botrytis cinerea) / liquid culture (gray mould); assay type: cell-based; details: 72 h, growth inhibition photometrically 3-4 days after application, read-out: control of Botryotinia fuckeliana
How it was run: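 Botrytis cinerea conidia in Vogels nutrient broth added to test compound delivered in DMSO. Incubated at 24 °C; growth inhibition measured photometrically 3–4 days after application.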

Glomerella lagenarium = Glomerella lagenarium (Colletotrichum lagenarium) / liquid culture (anthracnose); assay type: cell-based; details: Colletotrichum orbiculare, 72 h, photometrically 3-4 days after application, read-out: control of Glomerella lagenarium
How it was run: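 Conidia in potato dextrose broth added to test compound delivered as DMSO solution in microtiter plates; incubation at 24° C. Growth inhibition read photometrically 3-4 days after application.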

Phaeosphaeria nodorum = Phaeosphaeria nodorum (Septoria nodorum) / wheat / leaf disc preventative (glume blotch); assay type: in vivo; details: Parastagonospora nodorum, foliar, inoculated 2 days after application
Description: Example B9: Phaeosphaeria nodorum (Septoria nodorum)/Wheat/Leaf Disc Preventative (Glume Blotch) Wheat leaf segments cv. Kanzler are placed on agar in a multiwell plate (24-well format) and sprayed with the formulated test compound diluted in water. The leaf disks are inoculated with a spore suspension of the fungus 2 days after application. The inoculated test leaf disks are incubated at 20° C. and 75% relative humidity under a light regime of 12 h light/12 h darkness in a climate cabinet and the activity of a compound is assessed as percent disease control compared to untreated when an appropriate level of disease damage appears in untreated check leaf disks (5-7 days after application).

[3] = tested on: Blumeria graminis f. sp. tritici; test: Blumeria graminis f. sp. tritici / wheat / leaf disc preventative (powdery mildew); assay type: in vivo; details: foliar, inoculated 1 day after application
Description: Example B7: Blumeria graminis f. Sp. Tritici (Erysiphe graminis f. Sp. Tritici)/Wheat/Leaf Disc Preventative (Powdery Mildew on Wheat) Wheat leaf segments cv. Kanzler are placed on agar in a multiwell plate (24-well format) and sprayed with the formulated test compound diluted in water. The leaf disks are inoculated by shaking powdery mildew infected plants above the test plates 1 day after application. The inoculated leaf disks are incubated at 20° C. and 60% relative humidity under a light regime of 24 h darkness followed by 12 h light/12 h darkness in a climate chamber and the activity of a compound is assessed as percent disease control compared to untreated when an appropriate level of disease damage appears on untreated check leaf segments (6-8 days after application).

Cn1cc(C2CN(C(=O)c3cc(-c4ccc(F)cc4F)on3)Cc3ccccc32)cn1 (single isomer, unassigned) [Compound P-143, [5-(2,4-difluorophenyl)isoxazol-3-yl]-[4-(1-methylpyrazol-4-yl)-3,4-dihydro-1H-isoquinolin-2-yl]methanone]
≥ 80%: pest or weed control at 200 ppm (Pyrenophora teres) | inhibition of growth at 20 ppm (Sclerotinia sclerotiorum)

C#Cc1ccc(-c2cc(C(=O)N3Cc4ccccc4C(c4cnn(C)c4)C3)no2)c(F)c1 (stereo not drawn) [Compound P-31, [5-(4-ethynyl-2-fluoro-phenyl)isoxazol-3-yl]-[4-(1-methylpyrazol-4-yl)-3,4-dihydro-1H-isoquinolin-2-yl]methanone]
≥ 80%: pest or weed control at 200 ppm [1]

CC1c2ccc(OCC(F)(F)F)cc2C(C)(c2cnn(C)c2)CN1C(=O)c1cc(-c2ccc(F)cc2F)on1 (stereo not drawn) [Compound P-34, [5-(2,4-difluorophenyl)isoxazol-3-yl]-[1,4-dimethyl-4-(1-methylpyrazol-4-yl)-6-(2,2,2-trifluoroethoxy)-1,3-dihydroisoquinolin-2-yl]methanone]
≥ 80%: inhibition of growth at 20 ppm (Monographella nivalis) | inhibition of growth at 20 ppm (Mycosphaerella arachidis) | pest or weed control at 200 ppm [1] | inhibition of growth at 20 ppm [2]

Cc1c(C2c3ccccc3CN(C(=O)c3cc(-c4ccc(F)cc4F)on3)C2(C)C)cnn1C (stereo not drawn) [Compound P-100, [5-(2,4-difluorophenyl)isoxazol-3-yl]-[4-(1,5-dimethylpyrazol-4-yl)-3,3-dimethyl-1,4-dihydroisoquinolin-2-yl]methanone]
≥ 80%: pest or weed control at 200 ppm (Alternaria solani) | inhibition of growth at 20 ppm (Botryotinia fuckeliana) | inhibition of growth at 20 ppm (Glomerella lagenarium) | pest or weed control at 200 ppm (Phaeosphaeria nodorum) | inhibition of growth at 20 ppm (Monographella nivalis) | inhibition of growth at 20 ppm (Mycosphaerella arachidis) | pest or weed control at 200 ppm (Pyrenophora teres) | inhibition of growth at 20 ppm (Sclerotinia sclerotiorum) | inhibition of growth at 20 ppm [2]

Cn1cc(C2CN(C(=O)c3cc(-c4ccccc4)on3)Cc3ccc(C(F)(F)F)cc32)cn1 (stereo not drawn) [Compound P-104, [4-(1-methylpyrazol-4-yl)-6-(trifluoromethyl)-3,4-dihydro-1H-isoquinolin-2-yl]-(5-phenylisoxazol-3-yl)methanone]
≥ 80%: pest or weed control at 200 ppm (Alternaria solani) | inhibition of growth at 20 ppm (Glomerella lagenarium) | pest or weed control at 200 ppm [3] | pest or weed control at 200 ppm (Phaeosphaeria nodorum) | inhibition of growth at 20 ppm (Monographella nivalis) | inhibition of growth at 20 ppm (Mycosphaerella arachidis) | pest or weed control at 200 ppm [1] | pest or weed control at 200 ppm (Pyrenophora teres) | inhibition of growth at 20 ppm [2]

Cc1c(C2CN(C(=O)c3cc(-c4ccc(F)cc4)no3)Cc3ccccc32)cnn1C (stereo not drawn) [Compound P-109, [4-(1,5-dimethylpyrazol-4-yl)-3,4-dihydro-1H-isoquinolin-2-yl]-[3-(4-fluorophenyl)isoxazol-5-yl]methanone]
≥ 80%: pest or weed control at 200 ppm (Alternaria solani) | inhibition of growth at 20 ppm (Botryotinia fuckeliana) | inhibition of growth at 20 ppm (Glomerella lagenarium) | pest or weed control at 200 ppm [3] | pest or weed control at 200 ppm (Phaeosphaeria nodorum) | inhibition of growth at 20 ppm (Monographella nivalis) | inhibition of growth at 20 ppm (Mycosphaerella arachidis) | pest or weed control at 200 ppm [1] | pest or weed control at 200 ppm (Pyrenophora teres) | inhibition of growth at 20 ppm (Sclerotinia sclerotiorum) | inhibition of growth at 20 ppm [2]

Cc1ccc2c(c1)C(c1cnn(C)c1)CN(C(=O)c1cc(-c3ccc(F)cc3F)on1)C2 (stereo not drawn) [Compound P-133, [5-(2,4-difluorophenyl)isoxazol-3-yl]-[6-methyl-4-(1-methylpyrazol-4-yl)-3,4-dihydro-1H-isoquinolin-2-yl]methanone]
≥ 80%: pest or weed control at 200 ppm (Alternaria solani) | inhibition of growth at 20 ppm (Monographella nivalis) | inhibition of growth at 20 ppm (Mycosphaerella arachidis) | pest or weed control at 200 ppm [1] | inhibition of growth at 20 ppm [2]

Cn1cc(C2CN(C(=O)c3cc(-c4ccc(F)cc4F)no3)Cc3ccccc32)cn1 (stereo not drawn) [Compound P-151, [3-(2,4-difluorophenyl)isoxazol-5-yl]-[4-(1-methylpyrazol-4-yl)-3,4-dihydro-1H-isoquinolin-2-yl]methanone]
≥ 80%: pest or weed control at 200 ppm (Alternaria solani) | inhibition of growth at 20 ppm (Botryotinia fuckeliana) | inhibition of growth at 20 ppm (Glomerella lagenarium) | pest or weed control at 200 ppm [3] | pest or weed control at 200 ppm (Phaeosphaeria nodorum) | inhibition of growth at 20 ppm (Monographella nivalis) | inhibition of growth at 20 ppm (Mycosphaerella arachidis) | pest or weed control at 200 ppm (Pyrenophora teres) | inhibition of growth at 20 ppm [2]

CCc1ccc(-c2cc(C(=O)N3Cc4ccccc4C(c4cnn(C)c4)C3)no2)cc1 (stereo not drawn) [Compound P-171, [5-(4-ethylphenyl)isoxazol-3-yl]-[4-(1-methylpyrazol-4-yl)-3,4-dihydro-1H-isoquinolin-2-yl]methanone]
≥ 80%: pest or weed control at 200 ppm [1]

Cn1cc(C2CN(C(=O)c3cc(-c4ccc(F)cc4F)on3)Cc3ccccc32)cn1 (stereo not drawn) [Compound P-180, [5-(2,4-difluorophenyl)isoxazol-3-yl]-[4-(1-methylpyrazol-4-yl)-3,4-dihydro-1H-isoquinolin-2-yl]methanone]
≥ 80%: pest or weed control at 200 ppm (Alternaria solani) | inhibition of growth at 20 ppm (Botryotinia fuckeliana) | inhibition of growth at 20 ppm (Glomerella lagenarium) | pest or weed control at 200 ppm (Phaeosphaeria nodorum) | inhibition of growth at 20 ppm (Monographella nivalis) | inhibition of growth at 20 ppm (Mycosphaerella arachidis) | pest or weed control at 200 ppm (Pyrenophora teres) | inhibition of growth at 20 ppm (Sclerotinia sclerotiorum) | inhibition of growth at 20 ppm [2]

Cc1cc(C(=O)N2Cc3ccccc3C(c3cnn(C)c3)C2)no1 (stereo not drawn) [Compound P-194, (5-methylisoxazol-3-yl)-[4-(1-methylpyrazol-4-yl)-3,4-dihydro-1H-isoquinolin-2-yl]methanone]
≥ 80%: inhibition of growth at 20 ppm (Glomerella lagenarium) | inhibition of growth at 20 ppm (Monographella nivalis) | inhibition of growth at 20 ppm (Mycosphaerella arachidis) | pest or weed control at 200 ppm [1] | inhibition of growth at 20 ppm [2]

Cn1cc(C2CN(C(=O)c3cc(-c4cccs4)on3)Cc3ccccc32)cn1 (stereo not drawn) [Compound P-206, [4-(1-methylpyrazol-4-yl)-3,4-dihydro-1H-isoquinolin-2-yl]-[5-(2-thienyl)isoxazol-3-yl]methanone]
≥ 80%: inhibition of growth at 20 ppm (Glomerella lagenarium) | inhibition of growth at 20 ppm (Monographella nivalis) | pest or weed control at 200 ppm [1] | inhibition of growth at 20 ppm [2]
